Source: patent EP0934933A1, “Phthalazinones” (Byk Gulden Lomberg Chemische Fabrik GmbH, priority 1998, dated 1999)

System: PDE4
Assay: Inhibition of PDE 4 activity (method of Bauer and Schwabe, adapted to microtitre plates)
Assay type: biochemical
Settings: measured as -logIC50 (mol/l)

Row | SMILES | -logIC50
1 | CCOc1ccc(-c2nn(CC(=O)c3ccccc3)c(=O)c3ccccc23)cc1OCC [Compound 2, 2-(2-Phenyl-2-oxoethyl)-4-(3,4-diethoxyphenyl)-2H-phthalazin-1-one] | 7.01
2 | CCOc1cc(-c2nn(CC(=O)c3ccccc3)c(=O)c3ccccc23)ccc1OC [Compound 3, 4-(3-Ethoxy-4-methoxyphenyl)-2-(2-phenyl-2-oxoethyl)-2H-phthalazin-1-one] | 7.28
3 | COc1ccc(-c2nn(CC(=O)c3ccccc3)c(=O)c3ccccc23)cc1OC1CCCC1 [Compound 4, 4-(3-Cyclopentyloxy-4-methoxyphenyl)-2-(2-phenyl-2-oxoethyl)-2H-phthalazin-1-one] | 7.09
4 | COc1ccc(-c2nn(CC(=O)c3ccccc3)c(=O)c3ccccc23)cc1OC(F)F [Compound 5, 4-(3-Difluoromethoxy-4-methoxyphenyl)-2-(2-phenyl-2-oxoethyl)-2H-phthalazin-1-one] | 7.14
5 | COc1ccc(-c2nn(CC(=O)c3ccccc3OC)c(=O)c3ccccc23)cc1OC [Compound 7, 4-(3,4-Dimethoxyphenyl)-2-[2-(2-methoxyphenyl)-2-oxoethyl]-2H-phthalazin-1-one] | 7.52
6 | COc1ccc(OC)c(C(=O)Cn2nc(-c3ccc(OC)c(OC)c3)c3ccccc3c2=O)c1 [Compound 10, 4-(3,4-Dimethoxyphenyl)-2-[2-(2,5-dimethoxyphenyl)-2-oxoethyl]-2H-phthalazin-1-one] | 6.99
7 | COc1ccc(-c2nn(CC(=O)c3cc(Cl)c(N)c(Cl)c3)c(=O)c3ccccc23)cc1OC [Compound 12, 4-(3,4-Dimethoxyphenyl)-2-[2-(4-amino-3,5-dichlorophenyl)-2-oxoethyl]-2H-phthalazin-1-one] | 6.85
